From ChEMBL document CHEMBL1201862, “PubChem BioAssay data set” (2004)
Where “and” joins values, the source holds several entries; their conditions need not be identical. Identical values can stand only once.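 96-well plates; 48 h exposure; 5 concentrations. Endpoints by linear interpolation between flanking doses. Not reached: highest tested concentration assigned. Here, GI50 denotes the concentration required for 50% inhibition of growth.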 Calls of active or inactive are those of the source. No stated cut-off is given here; in the data, active = GI50 up to about 1.1 µM and inactive = higher.

Experiments:
Assay in all cases: inhibition of tumour cell growth, NCI panel, 48 h
K562 = system: K562
IGROV-1 = system: IGROV-1
SNB-75 = system: SNB-75
SK-MEL-28 = system: SK-MEL-28
SN12C = system: SN12C
EKVX = system: EKVX
HCC 2998 = system: HCC 2998
DLD-1 = system: DLD-1
M19-MEL = system: M19-MEL
CCRF-CEM = system: CCRF-CEM
SR = system: SR
OVCAR-3 = system: OVCAR-3
A549 = system: A549
HL-60 = system: HL-60
OVCAR-8 = system: OVCAR-8
XF498 = system: XF498
DMS-114 = system: DMS-114

Measured: GI50

Nc1ccc(C(=O)/C=C/c2ccccc2O)cc1
inactive: K562 > 100 µM | IGROV-1 > 100 µM | SNB-75 > 100 µM | SK-MEL-28 > 100 µM | SN12C > 100 µM | EKVX > 100 µM | HCC 2998 > 100 µM | DLD-1 > 100 µM | M19-MEL > 100 µM | CCRF-CEM > 100 µM | SR > 100 µM | OVCAR-3 > 100 µM | A549 > 100 µM | HL-60 > 100 µM | OVCAR-8 > 100 µM | XF498 > 100 µM

O=C1CCCC/C1=C1\C(=O)Nc2cc(F)ccc21
inactive: DMS-114 > 100 µM | K562 > 100 µM | IGROV-1 > 100 µM | SNB-75 > 100 µM | SK-MEL-28 > 100 µM | SN12C > 100 µM | EKVX > 100 µM | HCC 2998 > 100 µM | DLD-1 > 100 µM | M19-MEL > 100 µM | CCRF-CEM > 100 µM | A549 > 100 µM | HL-60 > 100 µM | OVCAR-8 > 100 µM | XF498 > 100 µM

CNS(=O)(=O)NN(C)S(=O)(=O)c1ccc2ccccc2c1
inactive: DMS-114 > 100 µM | K562 > 100 µM | IGROV-1 > 100 µM | SNB-75 > 100 µM | SN12C > 100 µM | EKVX > 100 µM | HCC 2998 > 100 µM | DLD-1 > 100 µM | M19-MEL > 100 µM | CCRF-CEM > 100 µM | SR > 100 µM | A549 > 100 µM | HL-60 > 100 µM | OVCAR-8 > 100 µM

CCCC(=O)N[C@@H](Cc1cc(I)c(O)c(I)c1)C(=O)NCCCNCCCCNCCCNC(=O)[C@@H](N)CCCN=C(N)N
inactive: DMS-114 > 100 µM | K562 45.1 µM | IGROV-1 29 µM | SK-MEL-28 50.4 µM | SN12C > 100 µM | EKVX > 100 µM | HCC 2998 42.3 µM | M19-MEL 40.1 µM | CCRF-CEM > 100 µM | SR > 100 µM | OVCAR-3 > 100 µM | A549 > 100 µM | HL-60 33.7 µM | OVCAR-8 > 100 µM | XF498 > 100 µM

Cc1ccc(S(=O)(=O)c2ccccc2[N+](=O)[O-])cc1
inactive: DMS-114 44.6 µM | K562 73.3 µM | IGROV-1 > 100 µM | SNB-75 > 100 µM | SK-MEL-28 > 100 µM | EKVX > 100 µM | HCC 2998 > 100 µM | DLD-1 > 100 µM | M19-MEL > 100 µM | CCRF-CEM > 100 µM | OVCAR-3 > 100 µM | A549 > 100 µM | HL-60 37.5 µM | OVCAR-8 > 100 µM | XF498 > 100 µM

COc1ccc2c(c1)CC[C@@H]1C2CC[C@]2(C)C(=N\O)/C(=N/O)CC12 (some centres not stated)
inactive: K562 8.32 µM | IGROV-1 3.64 µM | SN12C 17.7 µM | EKVX 18.7 µM | HCC 2998 22.3 µM | DLD-1 13.1 µM | M19-MEL 17.2 µM | CCRF-CEM 9.68 µM | OVCAR-3 12.4 µM | A549 10.1 µM | HL-60 14.2 µM | OVCAR-8 16.5 µM | XF498 14.5 µM

CCOC(=O)c1cn2c([nH]c3ccccc32)c(C#N)c1=O
inactive: K562 > 100 µM | IGROV-1 > 100 µM | SNB-75 > 100 µM | SK-MEL-28 > 100 µM | SN12C > 100 µM | EKVX > 100 µM | HCC 2998 > 100 µM | DLD-1 99.5 µM | M19-MEL > 100 µM | CCRF-CEM 52.4 µM | SR > 100 µM | OVCAR-3 > 100 µM | A549 > 100 µM | HL-60 25.8 µM | OVCAR-8 > 100 µM | XF498 > 100 µM

O=C(O)c1ccc(O)c(/N=N/c2cc(S(=O)(=O)O)c3ccccc3c2O)c1
inactive: DMS-114 82.6 µM | K562 > 100 µM | IGROV-1 45.1 µM | SNB-75 > 100 µM | SK-MEL-28 > 100 µM | SN12C > 100 µM | EKVX 23.3 µM | HCC 2998 > 100 µM | DLD-1 > 100 µM | M19-MEL 55.6 µM | SR > 100 µM | OVCAR-3 92.3 µM | A549 > 100 µM | HL-60 > 100 µM | OVCAR-8 > 100 µM

Fc1ccc2c(c1)SC1Oc3ccccc3-c3c1c-2nn3-c1ccccc1 (configuration not stated)
inactive: DMS-114 > 100 µM | K562 > 100 µM | IGROV-1 > 100 µM | SNB-75 86.7 µM | SK-MEL-28 > 100 µM | EKVX > 100 µM | HCC 2998 > 100 µM | DLD-1 > 100 µM | M19-MEL > 100 µM | CCRF-CEM > 100 µM | OVCAR-3 > 100 µM | A549 > 100 µM | HL-60 > 100 µM | OVCAR-8 > 100 µM | XF498 > 100 µM

COc1ccc(CN2CC(C)(C)C2=O)c(OC)c1
inactive: DMS-114 > 100 µM | K562 > 100 µM | IGROV-1 > 100 µM | SNB-75 70.8 µM | SK-MEL-28 > 100 µM | SN12C > 100 µM | EKVX > 100 µM | HCC 2998 > 100 µM | M19-MEL > 100 µM | CCRF-CEM > 100 µM | OVCAR-3 > 100 µM | A549 > 100 µM | HL-60 > 100 µM | OVCAR-8 > 100 µM | XF498 > 100 µM

Cc1[nH]c2ccccc2c1C1Cc2ccccc2N1C(=O)/C=C/C=C/c1ccccc1 (configuration not stated)
inactive: DMS-114 > 100 µM | K562 > 100 µM | IGROV-1 > 100 µM | SNB-75 > 100 µM | SK-MEL-28 > 100 µM | SN12C > 100 µM | EKVX > 100 µM | HCC 2998 > 100 µM | DLD-1 > 100 µM | M19-MEL > 100 µM | CCRF-CEM 58.2 µM | SR > 100 µM | OVCAR-3 13.1 µM | A549 > 100 µM | HL-60 27.5 µM | OVCAR-8 > 100 µM

Cn1c(=O)c(C(=O)NC23CC4CC(CC(C4)C2)C3)c(O)c2ccccc21
inactive: DMS-114 45.6 µM | K562 > 100 µM | IGROV-1 31.8 µM | SNB-75 28.4 µM | SK-MEL-28 37.7 µM | SN12C 21.9 µM | EKVX 31.5 µM | HCC 2998 > 10 µM | DLD-1 50.7 µM | M19-MEL 49.8 µM | CCRF-CEM > 100 µM | SR > 100 µM | OVCAR-3 23.4 µM | A549 28.8 µM | HL-60 25.1 µM | OVCAR-8 23.3 µM

COc1ccc2cc3nc(O)cc(O)c3cc2c1OC
inactive: DMS-114 > 100 µM | K562 > 100 µM | IGROV-1 > 100 µM | SNB-75 > 100 µM | SK-MEL-28 > 100 µM | SN12C > 100 µM | EKVX > 100 µM | HCC 2998 > 100 µM | M19-MEL > 100 µM | CCRF-CEM > 100 µM | SR > 100 µM | OVCAR-3 > 100 µM | A549 > 100 µM | HL-60 > 100 µM | OVCAR-8 > 100 µM | XF498 > 100 µM

CCCN1CN(C(C(=O)N[C@@H]2C(=O)N3C2SC(C)(C)C3C(=O)O)c2ccc(O)cc2)CSC1=S (some centres not stated)
inactive: DMS-114 19.1 µM | K562 24.4 µM | IGROV-1 > 100 µM | SNB-75 > 100 µM | SK-MEL-28 > 100 µM | SN12C > 100 µM | EKVX > 100 µM | DLD-1 52.8 µM | M19-MEL > 100 µM | CCRF-CEM > 100 µM | OVCAR-3 23.6 µM | HL-60 > 100 µM | OVCAR-8 > 100 µM | XF498 > 100 µM

[O-][n+]1c(-c2ccccc2)c2nc3ccccc3nc2c2ccccc21
inactive: DMS-114 > 100 µM | K562 > 100 µM | IGROV-1 > 100 µM | SNB-75 31.1 µM | SK-MEL-28 > 100 µM | SN12C > 100 µM | EKVX > 100 µM | HCC 2998 > 100 µM | DLD-1 > 100 µM | M19-MEL > 100 µM | CCRF-CEM > 100 µM | OVCAR-3 > 100 µM | A549 > 100 µM | OVCAR-8 > 100 µM | XF498 > 100 µM

O=C(CC1(O)C(=O)Nc2ccc(Br)cc21)c1ccc(Cl)cc1Cl (configuration not stated)
inactive: DMS-114 20.9 µM | K562 39.6 µM | IGROV-1 51.4 µM | SNB-75 38 µM | SK-MEL-28 44 µM | SN12C 35.6 µM | EKVX > 100 µM | HCC 2998 91.8 µM | DLD-1 47.1 µM | M19-MEL 14.9 µM | CCRF-CEM 20.2 µM | SR 23.7 µM | OVCAR-3 34.9 µM | A549 92 µM | HL-60 19.1 µM | OVCAR-8 47.9 µM

Clc1ccccc1C1=NN(c2ccccc2)C2c3cc(Br)ccc3OCC12 (configuration not stated)
inactive: DMS-114 > 100 µM | K562 > 100 µM | IGROV-1 > 100 µM | SNB-75 > 100 µM | SK-MEL-28 > 100 µM | EKVX 89.9 µM | HCC 2998 > 100 µM | DLD-1 > 100 µM | M19-MEL > 100 µM | CCRF-CEM > 100 µM | OVCAR-3 > 100 µM | A549 > 100 µM | HL-60 > 100 µM | OVCAR-8 > 100 µM | XF498 > 100 µM

COC1OC(COC(C)=O)C(OC(C)=O)C(OC(C)=O)C1NC(=O)N(CCCl)N=O (configuration not stated)
inactive: DMS-114 > 100 µM | K562 65 µM | IGROV-1 > 100 µM | SNB-75 47.1 µM and 34.4 µM | SK-MEL-28 > 100 µM | SN12C > 100 µM | EKVX > 100 µM | HCC 2998 > 100 µM | DLD-1 > 100 µM | M19-MEL > 100 µM | OVCAR-3 > 100 µM | A549 > 100 µM and 82.4 µM | HL-60 30.8 µM and 16.1 µM | OVCAR-8 > 100 µM | XF498 > 100 µM
